In patent US4946828A, “Novel insulin peptides” (Novo Nordisk A/S, priority 1985, dated 1990):

Legend:
mouse = assay: Mouse blood sugar depletion test (British Pharmacopoeia 1980, A 141-A 142); assay type: in vivo; conditions: solutions without additions of zinc (zinc content 8-10 μg/ml from crystals); estimated potencies
Description: The potencies of insulin compounds were accessed in the mouse blood sugar depletion test (British Pharmacopoeia 1980, A 141-A 142). In order to minimize the problem of estimating potency of insulins having a timing different from the standard, insulin solutions for potency determinations were made up without additions of zinc. Solutions were made up to contain […] based on the absorbance at 276 nm. The zinc content of solutions were 8-10 μg/ml, arising from the crystalline derivatives.

fasted rabbits = assay: Test for prolongation of insulin effect (hypoglycemic effect, British Pharmacopoeia 1980, A 142); assay type: in vivo, rabbit; conditions: for Glucose in percent of initial, 1 h / Glucose in percent of initial, 2 h / Glucose in percent of initial, 4 h / Glucose in percent of initial, 6 h: pH 4.5, 14.3 nmole per rabbit s.c.; for Prolongation of action: about 240 nmole/ml
Description: Sterile injectable solutions of the compounds of formula I for testing of the degree of prolonged action were made using 1.6% (w/v) glycerol as the isotonicum, using 0.3% (w/v) m-cresol as the preservative, […] The pH values of the solutions were adjusted sufficiently off the isoelectric point of the compounds of formula I to keep the solutions clear upon storage at 4° C. The solutions contained 240 nmole/ml of the compounds of formula I. The concentration of 240 nmole/ml was established by measurement of the absorbance at 276 nm of a more concentrated stock solution devoid of m-cresol, using the molar extinction coefficient for porcine insulin of 6100 for these derivatives (see Handbuch der Inneren Medizin, Vol. 7/Part 2A, Editor: Oberdisse, 1975, 113). […] 1 U corresponds to 5.95 nmole.
Injectable solutions containing 240 nmole/ml of the compounds of formula I stated in Table II and having the pH values and content of zinc stated therein were made.
The prolongation of the hypoglycemic effect produced by the injectable solutions of insulin was tested according to British Pharmacopoeia 1980, A 142, in fasted rabbits. Each test solution was administered subcutaneously in a dosis of 14.3 nmole per rabbit in 12 animals weighing 3-4 kg, and the course of the hypoglycemia was followed for 6 hours.

[1] = after subcutaneous administration; cited from earlier work

| Substance | Potency relative to insulin, % (mouse) [%] | Glucose in percent of initial, 1 h (fasted rabbits; Zn++ 80 μg/ml) | Glucose in percent of initial, 2 h (fasted rabbits; Zn++ 80 μg/ml) | Glucose in percent of initial, 4 h (fasted rabbits; Zn++ 80 μg/ml) | Glucose in percent of initial, 6 h (fasted rabbits; Zn++ 80 μg/ml) | other results |
| --- | --- | --- | --- | --- | --- | --- |
| Gln^B21 insulin | 96 |  |  |  |  |  |
| Gln^B13,Arg^B27 human insulin [Gln^B13,Arg^B27 insulin] | 78 | 55% of initial | 46% of initial | 61% of initial | 91% of initial |  |
| Arg^B27 human insulin [Arg^B27 insulin] | 87 | 45% of initial | 34% of initial | 51% of initial | 91% of initial |  |
| Gln^B13,Thr^B30 --NH2 human insulin [Gln^B13,Thr^B30 --NH2 insulin] |  |  |  |  |  | Glucose in percent of initial, 1 h (fasted rabbits; Zn++ […]): 91% of initial; Glucose in percent of initial, 2 h (fasted rabbits; Zn++ […]): 92% of initial; Glucose in percent of initial, 4 h (fasted rabbits; Zn++ […]): 92% of initial; Glucose in percent of initial, 6 h (fasted rabbits; Zn++ […]): 90% of initial |
| Lys^B30 --NH2 insulin |  | 74% of initial | 83% of initial | 80% of initial | 82% of initial | Prolongation of action (fasted rabbits; 30 zinc per hexamer, 80 μg zinc/ml): moderate prolongation of action |
| Lys^B27 human insulin [Lys^B27 insulin] | 88 | 47% of initial | 40% of initial | 55% of initial | 93% of initial |  |
| Gln^B13,Gln^A17 human insulin [Gln^A17,Gln^B13 insulin] | 50 | 53% of initial | 47% of initial | 55% of initial | 82% of initial |  |
| Gln^B13,Arg^B27,Thr^B30 --NH2 human insulin [Gln^B13,Arg^B27,Thr^B30 --NH2 insulin] | 62 |  |  |  |  |  |
| Arg^B27,Thr^B30 --NH2 human insulin [Arg^B27,Thr^B30 --NH2 insulin] | 92 | 88% of initial | 86% of initial | 85% of initial | 81% of initial | Prolongation of action (fasted rabbits; 3 zinc atoms per hexamer, 8 μg zinc/ml): very prolonged action; Glucose in percent of initial, 1 h (fasted rabbits; Zn++ […]): 62% of initial; Glucose in percent of initial, 2 h (fasted rabbits; Zn++ […]): 64% of initial; Glucose in percent of initial, 4 h (fasted rabbits; Zn++ […]): 66% of initial; Glucose in percent of initial, 6 h (fasted rabbits; Zn++ […]): 67% of initial |
| Gln^A17,Arg^B27,Thr^B30 --NH2 human insulin [Gln^A17,Arg^B27,Thr^B30 --NH2 insulin] | 71 |  |  |  |  |  |
| Gln^A4 insulin | 79 |  |  |  |  |  |
| Gln^A17,Lys^B30 --NH2 human insulin [Gln^A17,Lys^B30 --NH2 insulin] | 62 | 60% of initial | 56% of initial | 73% of initial | 86% of initial |  |
| Lys^B27,Lys^B30 --NH2 human insulin [Lys^B27,Lys^B30 --NH2 insulin] | 56 |  |  |  |  | Glucose in percent of initial, 1 h (fasted rabbits; Zn++ 9.5 μg/ml): 72% of initial; Glucose in percent of initial, 2 h (fasted rabbits; Zn++ 9.5 μg/ml): 65% of initial; Glucose in percent of initial, 4 h (fasted rabbits; Zn++ 9.5 μg/ml): 65% of initial; Glucose in percent of initial, 6 h (fasted rabbits; Zn++ 9.5 μg/ml): 60% of initial |
| Lys^B27,Thr^B30 --NH2 human insulin [Lys^B27,Thr^B30 --NH2 insulin] | 82 |  |  |  |  | Glucose in percent of initial, 1 h (fasted rabbits; Zn++ […]): 56% of initial; Glucose in percent of initial, 2 h (fasted rabbits; Zn++ […]): 55% of initial; Glucose in percent of initial, 4 h (fasted rabbits; Zn++ […]): 62% of initial; Glucose in percent of initial, 6 h (fasted rabbits; Zn++ […]): 61% of initial |
| Gln^A17,Thr^B30 --NH2 human insulin [Gln^A17,Thr^B30 --NH2 insulin] | 67 | 65% of initial | 63% of initial | 68% of initial | 83% of initial |  |
| A1,B29-di-Boc substituted insulin |  |  |  |  |  | Prolonged insulin action [1]: too slightly prolonged action to be clinically useful |
| Gln^A17,Arg^B27human insulin [Gln^A17,Arg^B27 insulin] | 69 | 53% of initial | 47% of initial | 50% of initial | 66% of initial |  |
| Arg^B27,Lys^B30 --NH2 human insulin [Arg^B27,Lys^B30 --NH2 insulin] | 84 | 85% of initial | 83% of initial | 81% of initial | 79% of initial | Glucose in percent of initial, 1 h (fasted rabbits; Zn++ 10.9 μg/ml): 78% of initial; Glucose in percent of initial, 2 h (fasted rabbits; Zn++ 10.9 μg/ml): 73% of initial; Glucose in percent of initial, 4 h (fasted rabbits; Zn++ 10.9 μg/ml): 69% of initial; Glucose in percent of initial, 6 h (fasted rabbits; Zn++ 10.9 μg/ml): 67% of initial |
| Gln^A17,Gln^B13,Thr^B30 --NH2 human insulin [Gln^A17,Gln^B13,Thr^B30 --NH2 insulin] | 49 |  |  |  |  |  |
